Results on three compounds are retold here after patent US20030104965A1, “Laundry sanitizer containing partially halogenated hydantoins” (Lonza Inc., priority 2001, published 2003).

One test relates to K. pneumoniae. Description: Petrocci & Clarke antimicrobial laundry additive test, cotton fabric, Tide powder plus sanitizer. It counts as cell-based. The following applies: 30 ppm sanitizer (expressed as Cl2), mixture with Tide powder; for Percent Reduction of K. pneumonia on Fabric: cotton fabric. The method, then:
Bioefficacy studies were performed using cotton fabric samples to compare monochloro dimethyl hydantoin (MCDMH) to trichloroisocyanuric acid (TCCA) and sodium dichloroisocyanurate (DCCA), two chlorine bleaches. Mixtures of Tide® powder, available from Procter and Gamble of Cincinnati, Ohio, and the sanitizers specified in Table 1 were prepared and thereafter dissolved in water. The sanitizers were completely dissolved in the water before testing. The mixtures were tested according to the known Petrocci & Clarke method (A. Petrocci and P. Clarke, Proposed Test Method for Antimicrobial Laundry Additives, Journal of the Association of Official Analytical Chemists, 52(4), 836-842 (1969)) against K. pneumoniae. The percent reduction of K. pneumonia on the fabric and on the wash water was determined.

Test [1] has as its system Klebsiella pneumoniae ATCC 4352. Description: Simulated in-use laundry sanitation test (Petrocci and Clarke). It counts as cell-based. The following applies: pH 7.0, Example 6. As to the method: A simulated “in-use” laundry sanitation test, as described in Petrocci and Clarke, supra, was conducted to evaluate the activity of the samples listed in Table 3 below.
The test was performed as follows. Fabric swatches were inoculated and dried with ˜20,000,000 cfu test organism. (Staphylococcus aureus ATCC 6538, Klebsiella pneumoniae ATCC 4352). The swatches were exposed to a sample dilution for 10 minutes followed by neutralization and enumeration of survivors. The percent reduction of bacteria was calculated for the fabric swatches and wash water.
The sample dilutions were prepared as follows. Tide® powder and MCDMH were dissolved separately in water and mixed together. Then the mixture was adjusted to 150 ppm hard water. The Tide® powder mixture contained about 1.8 g of Tide® powder per liter of mixture.
The procedure in Example 5 was repeated with Klebsiella pneumonia ATCC 4352 only. The Tide® liquid sample was prepared by the same procedure as the Tide® powder sample described in Example 5. The Tide® liquid mixture contained about 1.8 g of Tide® liquid per liter of mixture.

On to “monochloro-5,5-dimethyl hydantoin [MCDMH]”, for which, in the test with K. pneumoniae, the “Percent Reduction of K. pneumonia in Wash Water” value turned out to be 99.76% and the “Percent Reduction of K. pneumonia on Fabric” value (“Percent Reduction … on Fabric” for short) turned out to be 99.60%. Besides, in test [1] (5 ppm (expressed as Cl2)), the “% Reduction in 10 Minutes - Kiebsiella Fabric” value is listed as 99.99% and the “% Reduction in 10 Minutes - Kiebsiella Water” value was 100%. In test [1] (10 ppm (expressed as Cl2)), the “% Reduction in 10 Minutes - Kiebsiella Fabric” value is recorded as 100% and the “% Reduction in 10 Minutes - Kiebsiella Water” value is recorded as 100%. Moreover, in test [1] (20 ppm (expressed as Cl2)), the “% Reduction in 10 Minutes - Kiebsiella Fabric” value is listed as 100% and the “% Reduction in 10 Minutes - Kiebsiella Water” value is reported as 100%.

Consider `O=c1nc([O-])n(Cl)c(=O)n1Cl.[Na+]` [DCCA, sodium dichloroisocyanurate], for which, in the test with K. pneumoniae, the “Percent Reduction of K. pneumonia in Wash Water” value was 87.50% and the “Percent Reduction … on Fabric” value came to 96.36%.

For `O=c1n(Cl)c(=O)n(Cl)c(=O)n1Cl` [TCCA, trichloroisocyanuric acid], in the test on K. pneumoniae, the “Percent Reduction of K. pneumonia in Wash Water” value was found to be 96.38% and the “Percent Reduction … on Fabric” value is 97.09%.
